Legend:
CESS = test: SANGER: Inhibition of human CESS cell growth in a cell viability assay.; assay type: functional, cell-based; settings: Homo sapiens, CESS
EW-24 = test: cells; assay type: functional, cell-based, Homo sapiens; settings: Homo sapiens, EW-24
Description: SANGER: Inhibition of human EW-24 cell growth in a cell viability assay.

NCI-H1882 = test: cells; assay type: functional, cell-based, Homo sapiens; settings: Homo sapiens, NCI-H1882
Description: SANGER: Inhibition of human NCI-H1882 cell growth in a cell viability assay.

BL-70 = test: SANGER: Inhibition of human BL-70 cell growth in a cell viability assay.; assay type: functional, cell-based; settings: Homo sapiens, BL-70
K052 = test: cells; assay type: functional, cell-based, Homo sapiens; settings: Homo sapiens, K052
Description: SANGER: Inhibition of human K052 cell growth in a cell viability assay.

ST486 = test: SANGER: Inhibition of human ST486 cell growth in a cell viability assay.; assay type: functional, cell-based; settings: Homo sapiens, ST486
SR = test: cells; assay type: functional, cell-based, Homo sapiens; settings: Homo sapiens, SR
Description: SANGER: Inhibition of human SR cell growth in a cell viability assay.

LB647-SCLC = test: cells; assay type: functional, cell-based, Homo sapiens; settings: Homo sapiens, LB647-SCLC
Description: SANGER: Inhibition of human LB647-SCLC cell growth in a cell viability assay.

IST-SL2 = test: cells; assay type: functional, cell-based, Homo sapiens; settings: Homo sapiens, IST-SL2
Description: SANGER: Inhibition of human IST-SL2 cell growth in a cell viability assay.

NCI-H1522 = test: cells; assay type: functional, cell-based, Homo sapiens; settings: Homo sapiens, NCI-H1522
Description: SANGER: Inhibition of human NCI-H1522 cell growth in a cell viability assay.

NCI-H1436 = test: cells; assay type: functional, cell-based, Homo sapiens; settings: Homo sapiens, NCI-H1436
Description: SANGER: Inhibition of human NCI-H1436 cell growth in a cell viability assay.

NCI-H187 = test: cells; assay type: functional, cell-based, Homo sapiens; settings: Homo sapiens, NCI-H187
Description: SANGER: Inhibition of human NCI-H187 cell growth in a cell viability assay.

NCI-H2141 = test: cells; assay type: functional, cell-based, Homo sapiens; settings: Homo sapiens, NCI-H2141
Description: SANGER: Inhibition of human NCI-H2141 cell growth in a cell viability assay.

NB7 = test: cells; assay type: functional, cell-based, Homo sapiens; settings: Homo sapiens, NB7
Description: SANGER: Inhibition of human NB7 cell growth in a cell viability assay.

KARPAS-422 = test: cells; assay type: functional, cell-based, Homo sapiens; settings: Homo sapiens, KARPAS-422
Description: SANGER: Inhibition of human KARPAS-422 cell growth in a cell viability assay.

NCI-H322M = test: cells; assay type: functional, cell-based, Homo sapiens; settings: Homo sapiens, NCI-H322M
Description: SANGER: Inhibition of human NCI-H322M cell growth in a cell viability assay.

LB373-MEL-D = test: cells; assay type: functional, cell-based, Homo sapiens; settings: Homo sapiens, LB373-MEL-D
Description: SANGER: Inhibition of human LB373-MEL-D cell growth in a cell viability assay.

VM-CUB-1 = test: cells; assay type: functional, cell-based; settings: Homo sapiens
Description: SANGER: Inhibition of human VM-CUB-1 cell growth in a cell viability assay.

SW780 = test: cells; assay type: functional, cell-based; settings: Homo sapiens
Description: SANGER: Inhibition of human SW780 cell growth in a cell viability assay.

A-431 = test: cells; assay type: functional, cell-based; settings: Homo sapiens
Description: SANGER: Inhibition of human A431 cell growth in a cell viability assay.

NCI-H2052 = test: cells; assay type: functional, cell-based; settings: Homo sapiens
Description: SANGER: Inhibition of human NCI-H2052 cell growth in a cell viability assay.

PC-3 = test: cells; assay type: functional, cell-based; settings: Homo sapiens
Description: SANGER: Inhibition of human PC-3 cell growth in a cell viability assay.

A204 = test: cells; assay type: functional, cell-based; settings: Homo sapiens
Description: SANGER: Inhibition of human A204 cell growth in a cell viability assay.

HT-1376 = test: cells; assay type: functional, cell-based; settings: Homo sapiens
Description: SANGER: Inhibition of human HT-1376 cell growth in a cell viability assay.

SW1783 = test: cells; assay type: functional, cell-based; settings: Homo sapiens
Description: SANGER: Inhibition of human SW1783 cell growth in a cell viability assay.

C-33-A = test: cells; assay type: functional, cell-based; settings: Homo sapiens
Description: SANGER: Inhibition of human C-33-A cell growth in a cell viability assay.

647-V = test: cells; assay type: functional, cell-based; settings: Homo sapiens
Description: SANGER: Inhibition of human 647-V cell growth in a cell viability assay.

SK-OV-3 = test: cells; assay type: functional, cell-based; settings: Homo sapiens
Description: SANGER: Inhibition of human SK-OV-3 cell growth in a cell viability assay.

CAL-120 = test: cells; assay type: functional, cell-based; settings: Homo sapiens
Description: SANGER: Inhibition of human CAL-120 cell growth in a cell viability assay.

HCC1954 = test: cells; assay type: functional, cell-based; settings: Homo sapiens
Description: SANGER: Inhibition of human HCC1954 cell growth in a cell viability assay.

A 172 = test: cells; assay type: functional, cell-based; settings: Homo sapiens
Description: SANGER: Inhibition of human A172 cell growth in a cell viability assay.

AN3-CA = test: cells; assay type: functional, cell-based; settings: Homo sapiens
Description: SANGER: Inhibition of human AN3-CA cell growth in a cell viability assay.

DMS-273 = test: cells; assay type: functional, cell-based; settings: Homo sapiens
Description: SANGER: Inhibition of human DMS-273 cell growth in a cell viability assay.

DK-MG = test: cells; assay type: functional, cell-based; settings: Homo sapiens
Description: SANGER: Inhibition of human DK-MG cell growth in a cell viability assay.

SK-MEL3 = test: cells; assay type: functional, cell-based, SK-MEL-3; settings: Homo sapiens
Description: SANGER: Inhibition of human SK-MEL-3 cell growth in a cell viability assay.

SK-MEL-30 = test: cells; assay type: functional, cell-based; settings: Homo sapiens
Description: SANGER: Inhibition of human SK-MEL-30 cell growth in a cell viability assay.

639-V = test: cells; assay type: functional, cell-based; settings: Homo sapiens
Description: SANGER: Inhibition of human 639-V cell growth in a cell viability assay.

SW756 = test: cells; assay type: functional, cell-based; settings: Homo sapiens
Description: SANGER: Inhibition of human SW756 cell growth in a cell viability assay.

NCI-H2170 = test: cells; assay type: functional, cell-based; settings: Homo sapiens
Description: SANGER: Inhibition of human NCI-H2170 cell growth in a cell viability assay.

SW48 = test: cells; assay type: functional, cell-based; settings: Homo sapiens
Description: SANGER: Inhibition of human SW48 cell growth in a cell viability assay.

SK-HEP1 = test: cells; assay type: functional, cell-based, SK-HEP-1; settings: Homo sapiens
Description: SANGER: Inhibition of human SK-HEP-1 cell growth in a cell viability assay.

CAL-33 = test: cells; assay type: functional, cell-based; settings: Homo sapiens
Description: SANGER: Inhibition of human CAL-33 cell growth in a cell viability assay.

IGROV-1 = test: cells; assay type: functional, cell-based; settings: Homo sapiens
Description: SANGER: Inhibition of human IGROV-1 cell growth in a cell viability assay.

NCI-H661 = test: cells; assay type: functional, cell-based; settings: Homo sapiens
Description: SANGER: Inhibition of human NCI-H661 cell growth in a cell viability assay.

SAOS-2 = test: cells; assay type: functional, cell-based; settings: Homo sapiens
Description: SANGER: Inhibition of human Saos-2 cell growth in a cell viability assay.

CaR-1 = test: cells; assay type: functional, cell-based; settings: Homo sapiens
Description: SANGER: Inhibition of human CaR-1 cell growth in a cell viability assay.

A-375 = test: cells; assay type: functional, cell-based; settings: Homo sapiens
Description: SANGER: Inhibition of human A375 cell growth in a cell viability assay.

SBC-5 = test: cells; assay type: functional, cell-based; settings: Homo sapiens
Description: SANGER: Inhibition of human SBC-5 cell growth in a cell viability assay.

KYSE-140 = test: cells; assay type: functional, cell-based; settings: Homo sapiens
Description: SANGER: Inhibition of human KYSE-140 cell growth in a cell viability assay.

769-P = test: cells; assay type: functional, cell-based; settings: Homo sapiens
Description: SANGER: Inhibition of human 769-P cell growth in a cell viability assay.

HCC1395 = test: cells; assay type: functional, cell-based; settings: Homo sapiens
Description: SANGER: Inhibition of human HCC1395 cell growth in a cell viability assay.

NCI-H596 = test: cells; assay type: functional, cell-based; settings: Homo sapiens
Description: SANGER: Inhibition of human NCI-H596 cell growth in a cell viability assay.

8505C = test: cells; assay type: functional, cell-based; settings: Homo sapiens
Description: SANGER: Inhibition of human 8505C cell growth in a cell viability assay.

RVH-421 = test: cells; assay type: functional, cell-based; settings: Homo sapiens
Description: SANGER: Inhibition of human RVH-421 cell growth in a cell viability assay.

HT1197 = test: cells; assay type: functional, cell-based, HT-1197; settings: Homo sapiens
Description: SANGER: Inhibition of human HT-1197 cell growth in a cell viability assay.

HGC-27 = test: cells; assay type: functional, cell-based; settings: Homo sapiens
Description: SANGER: Inhibition of human HGC-27 cell growth in a cell viability assay.

Ca-Ski = test: cells; assay type: functional, cell-based; settings: Homo sapiens
Description: SANGER: Inhibition of human Ca-Ski cell growth in a cell viability assay.

## C[C@@H](Oc1cc(-c2cnn(C3CCNCC3)c2)cnc1N)c1c(Cl)ccc(F)c1Cl [CRIZOTINIB]
CESS
  IC50: > 2000 nM
EW-24
  IC50: > 2000 nM
NCI-H1882
  IC50: > 2000 nM
BL-70
  IC50: > 2000 nM
K052
  IC50: > 2000 nM
ST486
  IC50: > 2000 nM
SR
  IC50: 126 nM
LB647-SCLC
  IC50: > 2000 nM
IST-SL2
  IC50: > 2000 nM
NCI-H1522
  IC50: > 2000 nM
NCI-H1436
  IC50: > 2000 nM
NCI-H187
  IC50: > 2000 nM
NCI-H2141
  IC50: > 2000 nM
NB7
  IC50: > 2000 nM
KARPAS-422
  IC50: > 2000 nM
NCI-H322M
  IC50: > 2000 nM
LB373-MEL-D
  IC50: > 2000 nM

## CC(C)C[C@H](NC(=O)[C@H](Cc1ccccc1)NC(=O)c1cnccn1)B(O)O [BORTEZOMIB]
CESS
  IC50: 0.538 nM
EW-24
  IC50: 2.08 nM
NCI-H1882
  IC50: 1.2 nM
BL-70
  IC50: 2.12 nM
ST486
  IC50: > 20 nM
SR
  IC50: 1.25 nM
LB647-SCLC
  IC50: 4.22 nM
IST-SL2
  IC50: 1.31 nM
NCI-H1522
  IC50: > 20 nM
NCI-H1436
  IC50: 17 nM
NCI-H187
  IC50: > 20 nM
NCI-H2141
  IC50: 4.05 nM
NB7
  IC50: 15.9 nM
KARPAS-422
  IC50: > 20 nM
NCI-H322M
  IC50: > 20 nM
LB373-MEL-D
  IC50: 0.7 nM

## C=CC(=O)N1CCCC(Nc2nc(Nc3ccc(N(C)C(=O)CC)cc3)nc3[nH]cnc23)C1 (stereo not drawn)
CESS
  IC50: > 10200 nM
EW-24
  IC50: 4590 nM
NCI-H1882
  IC50: > 10200 nM
BL-70
  IC50: > 10200 nM
K052
  IC50: > 10200 nM
ST486
  IC50: > 10200 nM
SR
  IC50: > 10200 nM
LB647-SCLC
  IC50: > 10200 nM
IST-SL2
  IC50: > 10200 nM
NCI-H1522
  IC50: > 10200 nM
NCI-H1436
  IC50: > 10200 nM
NCI-H187
  IC50: > 10200 nM
NCI-H2141
  IC50: > 10200 nM
NB7
  IC50: > 10200 nM
KARPAS-422
  IC50: > 10200 nM
NCI-H322M
  IC50: > 10200 nM
LB373-MEL-D
  IC50: > 10200 nM

## NC(=O)c1cccc(-c2cc(Nc3ccc(OC(F)(F)F)cc3)ncn2)c1
CESS
  IC50: > 1280 nM
EW-24
  IC50: > 1280 nM
NCI-H1882
  IC50: > 1280 nM
BL-70
  IC50: > 1280 nM
K052
  IC50: > 1280 nM
ST486
  IC50: > 1280 nM
SR
  IC50: > 1280 nM
LB647-SCLC
  IC50: > 1280 nM
IST-SL2
  IC50: > 1280 nM
NCI-H1522
  IC50: > 1280 nM
NCI-H1436
  IC50: > 1280 nM
NCI-H187
  IC50: > 1280 nM
NCI-H2141
  IC50: > 1280 nM
NB7
  IC50: > 1280 nM
KARPAS-422
  IC50: > 1280 nM
NCI-H322M
  IC50: > 1280 nM
LB373-MEL-D
  IC50: > 1280 nM

## O=C(NCCCNc1nc(Nc2cccc(NC(=O)N3CCCC3)c2)ncc1I)c1cccs1 [BX-795]
VM-CUB-1
  IC50: 2040 nM
SW780
  IC50: 3260 nM
A-431
  IC50: 2760 nM
NCI-H2052
  IC50: > 5000 nM
PC-3
  IC50: 4170 nM
A204
  IC50: 1150 nM
HT-1376
  IC50: > 5000 nM
SW1783
  IC50: 3540 nM
C-33-A
  IC50: > 5000 nM
647-V
  IC50: > 5000 nM
SK-OV-3
  IC50: > 5000 nM
CAL-120
  IC50: 3890 nM
HCC1954
  IC50: > 5000 nM
A 172
  IC50: 4450 nM
AN3-CA
  IC50: 1640 nM
DMS-273
  IC50: > 5000 nM
DK-MG
  IC50: 1570 nM
SK-MEL3
  IC50: > 5000 nM
SK-MEL-30
  IC50: > 5000 nM
639-V
  IC50: > 5000 nM
SW756
  IC50: > 5000 nM
NCI-H2170
  IC50: > 5000 nM
SW48
  IC50: 2020 nM
SK-HEP1
  IC50: 2970 nM
CAL-33
  IC50: > 5000 nM
IGROV-1
  IC50: > 5000 nM
NCI-H661
  IC50: > 5000 nM
SAOS-2
  IC50: 4120 nM
CaR-1
  IC50: > 5000 nM
A-375
  IC50: 1310 nM
SBC-5
  IC50: > 5000 nM
KYSE-140
  IC50: 3720 nM
769-P
  IC50: > 5000 nM
HCC1395
  IC50: > 5000 nM
NCI-H596
  IC50: > 5000 nM
8505C
  IC50: 3800 nM
RVH-421
  IC50: > 5000 nM
NB7
  IC50: > 5000 nM
HT1197
  IC50: > 5000 nM
HGC-27
  IC50: > 5000 nM
Ca-Ski
  IC50: > 5000 nM

## CS(=O)(=O)N1CCN(Cc2cc3nc(-c4cccc5[nH]ncc45)nc(N4CCOCC4)c3s2)CC1 [PICTILISIB]
VM-CUB-1
  IC50: > 4000 nM
SW780
  IC50: > 4000 nM
A-431
  IC50: 2270 nM
NCI-H2052
  IC50: > 4000 nM
PC-3
  IC50: > 4000 nM
A204
  IC50: 522 nM
HT-1376
  IC50: > 4000 nM
SW1783
  IC50: > 4000 nM
C-33-A
  IC50: > 4000 nM
647-V
  IC50: > 4000 nM
SK-OV-3
  IC50: > 4000 nM
CAL-120
  IC50: > 4000 nM
HCC1954
  IC50: > 4000 nM
AN3-CA
  IC50: 340 nM
DMS-273
  IC50: 2860 nM
DK-MG
  IC50: > 4000 nM
SK-MEL3
  IC50: > 4000 nM
SK-MEL-30
  IC50: > 4000 nM
639-V
  IC50: 1500 nM
SW756
  IC50: > 4000 nM
NCI-H2170
  IC50: > 4000 nM
SW48
  IC50: > 4000 nM
SK-HEP1
  IC50: > 4000 nM
CAL-33
  IC50: > 4000 nM
IGROV-1
  IC50: 634 nM
NCI-H661
  IC50: > 4000 nM
SAOS-2
  IC50: 1330 nM
CaR-1
  IC50: > 4000 nM
A-375
  IC50: > 4000 nM
SBC-5
  IC50: > 4000 nM
KYSE-140
  IC50: > 4000 nM
769-P
  IC50: 3830 nM
HCC1395
  IC50: > 4000 nM
NCI-H596
  IC50: > 4000 nM
8505C
  IC50: > 4000 nM
RVH-421
  IC50: > 4000 nM
NB7
  IC50: 390 nM
HT1197
  IC50: > 4000 nM
HGC-27
  IC50: 213 nM
Ca-Ski
  IC50: > 4000 nM

## CO[C@@H]1[C@H](N(C)C(=O)c2ccccc2)C[C@H]2O[C@]1(C)n1c3ccccc3c3c4c(c5c6ccccc6n2c5c31)C(=O)NC4 [MIDOSTAURIN]
VM-CUB-1
  IC50: > 512 nM
NCI-H2052
  IC50: > 512 nM
PC-3
  IC50: > 512 nM
SW1783
  IC50: > 512 nM
CESS
  IC50: > 512 nM
CAL-120
  IC50: 211 nM
AN3-CA
  IC50: 322 nM
BL-70
  IC50: > 512 nM
DMS-273
  IC50: 324 nM
ST486
  IC50: 349 nM
SW48
  IC50: 267 nM
IGROV-1
  IC50: > 512 nM
HCC1395
  IC50: 84.3 nM
NCI-H596
  IC50: > 512 nM
HGC-27
  IC50: > 512 nM

— ChEMBL document CHEMBL1201861, “Genomics of Drug Sensitity in Cancer screening data, Wellcome Trust Sanger Institute”
